Laboratory results taken from ChEMBL document CHEMBL5344405, “Seleno-vs. thioether triazine derivatives in search for new anticancer agents overcoming multidrug resistance in lymphoma” (Eur J Med Chem, 2022).
Calls of active or inactive are those of the source. No cut-off for these calls is given here.

What was measured:
L5178Y [1] = experiment: Cytotoxicity against multidrug resistant mouse L5178Y cells expressing ABCB1 assessed as inhibition of cell growth incubated for 24 hrs by MTT assay; assay type: functional, cell-based
L5178Y [2] = experiment: Cytotoxicity against parental mouse L5178Y cells assessed as inhibition of cell growth incubated for 24 hrs by MTT assay; assay type: functional, cell-based
L5178Y [3] = experiment: Antiproliferative activity against multidrug resistant mouse L5178Y cells expressing ABCB1 assessed as inhibition of cell growth incubated for 72 hrs by MTT assay; assay type: functional, cell-based
L5178Y [4] = experiment: Antiproliferative activity against parental mouse L5178Y cells assessed as inhibition of cell growth incubated for 72 hrs by MTT assay; assay type: functional, cell-based
L5178Y [5] = experiment: Synergistic antiproliferative activity against multidrug resistant mouse L5178Y cells expressing ABCB1 assessed as combination index at 200 uM incubated for 72 hrs in presence of doxorubicin at 17.242 uM by checkerboard assay; assay type: functional
[6] = Cytotoxicity against human skin fibroblast cells assessed as inhibition of cell growth incubated for 72 hrs by MTS assay; assay type: toxicity, cell-based
Jurkat [7] = experiment: Synergistic induction of cell cycle arrest in human Jurkat cells assessed as increase in p53 gene expression at 50 uM incubated for 24 hrs in presence of doxorubicin at 50 nM by qPCR analysis; assay type: functional, cell-based
[8] = Cytotoxicity against human HuT 102 cells assessed as inhibition of cell growth incubated for 72 hrs by MTS assay; assay type: functional, cell-based; details: HuT-102, 72 h
Jurkat [9] = experiment: Induction of cell cycle arrest in human Jurkat cells assessed as increase in p21 gene expression at 50 uM incubated for 24 hrs by qPCR analysis; assay type: functional, cell-based
Jurkat [10] = experiment: Synergistic induction of cell cycle arrest in human Jurkat cells assessed as increase in p21 gene expression at 50 uM incubated for 24 hrs in presence of doxorubicin at 50 nM by qPCR analysis; assay type: functional, cell-based
Jurkat [11] = experiment: Induction of cell cycle arrest in human Jurkat cells assessed as reduction in cyclin D1 gene expression at 50 uM incubated for 24 hrs by qPCR analysis; assay type: functional, cell-based
Jurkat [12] = experiment: Induction of cell cycle arrest in human Jurkat cells assessed as reduction in cyclin E1 gene expression at 50 uM incubated for 24 hrs by qPCR analysis; assay type: functional, cell-based
Jurkat [13] = experiment: Induction of cell cycle arrest in human Jurkat cells assessed as increase in p53 gene expression at 50 uM incubated for 24 hrs by qPCR analysis; assay type: functional, cell-based
Jurkat [14] = experiment: Induction of cell cycle arrest in human Jurkat cells assessed as increase in p21 transcription at 50 uM incubated for 24 hrs by qPCR analysis; assay type: functional, cell-based
Jurkat [15] = experiment: Induction of cell cycle arrest in human Jurkat cells assessed as increase in p53 transcription at 50 uM incubated for 24 hrs by qPCR analysis; assay type: functional, cell-based
Jurkat [16] = experiment: Synergistic induction of cell cycle arrest in human Jurkat cells assessed as reduction in cyclin D1 gene expression at 50 uM incubated for 24 hrs in presence of doxorubicin at 50 nM by qPCR analysis; assay type: functional, cell-based
[17] = Upregulation of ABCC1 gene expression in human SH-SY5Y cells at 20 uM incubated for 96 hrs by RT-PCR analysis; assay type: toxicity, cell-based
[18] = Upregulation of ABCG2 gene expression in human SH-SY5Y cells at 20 uM incubated for 96 hrs by RT-PCR analysis; assay type: toxicity, cell-based
L5178Y [19] = experiment: Synergistic antiproliferative activity against multidrug resistant mouse L5178Y cells expressing ABCB1 assessed as combination index at 60 uM incubated for 72 hrs in presence of doxorubicin at 17.242 uM by checkerboard assay; assay type: functional
[20] = Upregulation of ABCB1 gene expression in human SH-SY5Y cells at 20 uM incubated for 96 hrs by RT-PCR analysis; assay type: toxicity, cell-based
Jurkat [21] = experiment: Synergistic induction of cell cycle arrest in human Jurkat cells assessed as reduction in cyclin E1 gene expression at 50 uM incubated for 24 hrs in presence of doxorubicin at 50 nM by qPCR analysis; assay type: functional, cell-based
L5178Y [22] = experiment: Synergistic antiproliferative activity against multidrug resistant mouse L5178Y cells expressing ABCB1 assessed as combination index at 50 uM incubated for 72 hrs in presence of doxorubicin at 17.242 uM by checkerboard assay; assay type: functional
L5178Y [23] = experiment: Synergistic antiproliferative activity against multidrug resistant mouse L5178Y cells expressing ABCB1 assessed as combination index at 150 uM incubated for 72 hrs in presence of doxorubicin at 17.242 uM by checkerboard assay; assay type: functional
L5178Y [24] = experiment: Synergistic antiproliferative activity against multidrug resistant mouse L5178Y cells expressing ABCB1 assessed as combination index at 100 uM incubated for 72 hrs in presence of doxorubicin at 17.242 uM by checkerboard assay; assay type: functional
[25] = Selectivity index, ratio of IC50 for parental mouse L5178Y cells to IC50 for multidrug resistant mouse L5178Y cells expressing ABCB1; assay type: functional

SMILES | IC50 (L5178Y [1]) [µM] | IC50 (L5178Y [2]) [µM] | IC50 (L5178Y [3]) [µM] | IC50 (L5178Y [4]) [µM] | also measured
CN1CCN(c2nc(N)nc(C(C)(C)Sc3ccc4ccccc4c3)n2)CC1 | 29 | 24.8 | 38.5 | 26.4 | –
CC(Sc1ccccc1)c1nc(N)nc(N2CCN(C)CC2)n1 (stereo not drawn) | > 100 | > 100 | 68.7 | > 100 | –
CCC(Sc1cccc2ccccc12)c1nc(N)nc(N2CCN(C)CC2)n1 (stereo not drawn) | 30.3 | 22.6 | 31.1 | 28.2 | –
CCC(SCc1ccccc1)c1nc(N)nc(N2CCN(C)CC2)n1 (stereo not drawn) | > 100 | 59.2 | 67.3 | 83 | –
CN1CCN(c2nc(N)nc(CCCSCc3ccccc3)n2)CC1 | 61.3 | 27.7 | 51.5 | 38.8 | –
CCCCC(SCc1ccccc1)c1nc(N)nc(N2CCN(C)CC2)n1 (stereo not drawn) | 30.6 | 19.7 | 28.1 | 25.8 | –
CCCCC(Sc1ccc2ccccc2c1)c1nc(N)nc(N2CCN(C)CC2)n1 (stereo not drawn) | 45.2 | 23.2 | 35.5 | 36.4 | –
CN1CCN(c2nc(N)nc(C(C)(C)Sc3ccccc3)n2)CC1.Cl | 83.9 | 68.8 | 53 | 65.2 | CI (L5178Y [5]): 0.41
CN1CCN(c2nc(N)nc(CSc3ccccc3)n2)CC1 | > 100 | > 100 | 79.9 | > 100 | –
CC(SCc1ccccc1)c1nc(N)nc(N2CCN(C)CC2)n1 (stereo not drawn) | > 100 | 91.8 | 92.4 | > 100 | –
CN1CCN(c2nc(N)nc(CCC[Se]Cc3ccccc3)n2)CC1 | 57.4 | 32 | 38.6 | 30.8 | –
CN1CCN(c2nc(N)nc(C[Se]Cc3ccccc3)n2)CC1 | > 100 | > 100 | 22.7 | 45.6 | –
CCC([Se]Cc1ccccc1)c1nc(N)nc(N2CCN(C)CC2)n1 (stereo not drawn) | 25.3 | 8.66 | 11.8 | 10.7 | IC50 at 72 h [6]: > 100 µM; Activity (Jurkat [7]): Active; IC50 [8]: 44.3 µM; Activity (Jurkat [9]): Active; Activity (Jurkat [10]): Active; Activity (Jurkat [11]): Active; Activity (Jurkat [12]): Active; Activity (Jurkat [13]): Active
CN1CCN(c2nc(N)nc(CCSc3ccccc3)n2)CC1 | 67 | 60.8 | 33.8 | 54.5 | –
CN1CCN(c2nc(N)nc(CCCSc3ccc4ccccc4c3)n2)CC1.Cl | 16.7 | 11.4 | 5.35 | 6.71 | IC50 at 72 h [6]: 79.1 µM; Activity (Jurkat [7]): Active; Activity (Jurkat [14]): Active; IC50 [8]: 19.7 µM; Activity (Jurkat [10]): Active; Activity (Jurkat [15]): Active; Activity (Jurkat [11]): Active; Activity (Jurkat [16]): Active; Activity (Jurkat [12]): Active; Activity [17]: Toxic; Activity [18]: Toxic; CI (L5178Y [19]): 0.18; Activity [20]: Toxic; Activity (Jurkat [21]): Active
CCCC(Sc1ccccc1)c1nc(N)nc(N2CCN(C)CC2)n1.Cl (stereo not drawn) | 21.2 | 15 | 16.6 | 15.5 | IC50 at 72 h [6]: > 100 µM; Activity (Jurkat [14]): Active; IC50 [8]: 58.2 µM; Activity (Jurkat [15]): Active; Activity (Jurkat [11]): inactive; Activity (Jurkat [12]): Active; CI (L5178Y [22]): 0.044; Activity (Jurkat [21]): Active

SMILES | IC50 (L5178Y [1]) [µM] | IC50 (L5178Y [2]) [µM] | IC50 (L5178Y [3]) [µM] | IC50 (L5178Y [4]) [µM] | also measured
CN1CCN(c2nc(N)nc(CCCSc3ccccc3)n2)CC1.Cl | 52 | 30.1 | 28.6 | 34.1 | CI (L5178Y [23]): 0.199
CCC(Sc1ccccc1)c1nc(N)nc(N2CCN(C)CC2)n1.Cl (stereo not drawn) | 81.5 | 54.4 | 47 | 58 | CI (L5178Y [5]): 0.127
CCCCC(Sc1ccccc1)c1nc(N)nc(N2CCN(C)CC2)n1.Cl (stereo not drawn) | 21.6 | 15.5 | 17.4 | 20.6 | CI (L5178Y [22]): 0.148
CCCC(SCc1ccccc1)c1nc(N)nc(N2CCN(C)CC2)n1.Cl (stereo not drawn) | 54.6 | 36 | 23.5 | 24.2 | CI (L5178Y [23]): 0.142
CN1CCN(c2nc(N)nc(C(C)(C)Sc3cccc4ccccc34)n2)CC1 | 23.4 | 14.8 | 24.7 | 19.9 | –
CN1CCN(c2nc(N)nc(CSc3ccc4ccccc4c3)n2)CC1.Cl | 36.6 | 27.1 | 13.5 | 19 | CI (L5178Y [24]): 0.415
CN1CCN(c2nc(N)nc(CCC[Se]c3ccccc3)n2)CC1.Cl | 42.2 | 33.4 | 11.6 | 13.3 | IC50 at 72 h [6]: > 100 µM; IC50 [8]: 62 µM; Activity (Jurkat [11]): Active; Activity (Jurkat [16]): Active; Activity (Jurkat [12]): Active; CI (L5178Y [24]): 0.309; Activity (Jurkat [21]): Active
CC(Sc1cccc2ccccc12)c1nc(N)nc(N2CCN(C)CC2)n1 (stereo not drawn) | 32.4 | 15.5 | 32.8 | 23.3 | –
CN1CCN(c2nc(N)nc(CSCc3ccccc3)n2)CC1 | > 100 | > 100 | 37.2 | 57.2 | –
COc1cccc2c1C(=O)c1c(O)c3c(c(O)c1C2=O)C[C@@](O)(C(=O)CO)C[C@@H]3O[C@H]1C[C@H](N)[C@H](O)[C@H](C)O1 [DOXORUBICIN] | 2.14 | 0.7 | 1.75 | 0.28 | –
CCCC(Sc1ccc2ccccc2c1)c1nc(N)nc(N2CCN(C)CC2)n1 (stereo not drawn) | 53.2 | 23.9 | 42.7 | 43.3 | –
CN1CCN(c2nc(N)nc(CCSCc3ccccc3)n2)CC1.Cl | 70.9 | 82.4 | 32.2 | 38.6 | CI (L5178Y [5]): 0.323
CCC(Sc1ccc2ccccc2c1)c1nc(N)nc(N2CCN(C)CC2)n1 (stereo not drawn) | 30.4 | 17.8 | 27.5 | 21.2 | –
CCCC([Se]c1ccccc1)c1nc(N)nc(N2CCN(C)CC2)n1.Cl (stereo not drawn) | 76.8 | 38.6 | 6.03 | 14.4 | IC50 at 72 h [6]: > 100 µM; Activity (Jurkat [7]): Active; Ratio IC50 [25]: >2; IC50 [8]: 54.3 µM; Activity (Jurkat [9]): Active; Activity (Jurkat [10]): Active; Activity (Jurkat [11]): Active; Activity (Jurkat [16]): Active; Activity (Jurkat [12]): Active; CI (L5178Y [5]): 0.092
CC(Sc1ccc2ccccc2c1)c1nc(N)nc(N2CCN(C)CC2)n1 (stereo not drawn) | 28.1 | 18.4 | 18.6 | 21.3 | –
